The record followed here is patent US4868321A, “Isothiocyanate intermediates” (FMC Corporation, priority 1988, dated 1989).

Format in all cases: in vivo
Assay [1] concerns Soybean. Briefly: Postemergence Herbicidal Activity, Soybean. The settings on record: Glycine max, post-emergence; for plant injury at 250 g/ha: 0.25 kg/ha. The procedure, abridged:
(§1)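 The reported numbers are percent control, obtained after treatment at rates quantified as kilograms per hectare.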

Assay [2] has as its system Velvetleaf. Description: Preemergence Herbicidal Activity, Velvetleaf. Conditions: Abutilon theophrasti, pre-emergence; for pest or weed control at 250 g/ha: 0.25 kg/ha. In a few lines: (§2)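 Percent control scored after pre- or postemergence treatment at rates in kg/ha, using test compounds generally formulated in 50/50 acetone/water.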
The subject of assay [3] is Rice. Briefly: Postemergence Herbicidal Activity, Rice. The settings on record: Oryza sativa, post-emergence; for plant injury at 250 g/ha: 0.25 kg/ha. The procedure, abridged: as §1
Assay [4] has as its system Soybean. Briefly: Preemergence Herbicidal Activity, Soybean. Conditions: Glycine max, pre-emergence; for plant injury at 250 g/ha: 0.25 kg/ha. The procedure, abridged:
as §1

The test system of assay [5] is Field Corn. Briefly: Preemergence Herbicidal Activity, Field Corn. The settings on record: Zea mays, pre-emergence; for plant injury at 250 g/ha: 0.25 kg/ha. In a few lines:
as §1

Assay [6] has as its system Johnsongrass. Briefly: Postemergence Herbicidal Activity, Johnsongrass. Conditions: Sorghum halepense, post-emergence; for pest or weed control at 250 g/ha: 0.25 kg/ha. The procedure, abridged:
(§3)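 Test compounds are dosed on a per-area basis (kg/ha); plant response is reported as % C.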

Assay [7] relates to Green Foxtail. Description: Postemergence Herbicidal Activity, Green Foxtail. Conditions: Setaria viridis, post-emergence; for pest or weed control at 250 g/ha: 0.25 kg/ha. In a few lines: as §3
The subject of assay [8] is Morningglory. Description: Preemergence Herbicidal Activity, Morningglory. The settings on record: Ipomoea, pre-emergence; for pest or weed control at 250 g/ha: 0.25 kg/ha. The procedure, abridged: as §2
The subject of assay [9] is Johnsongrass. Briefly: Preemergence Herbicidal Activity, Johnsongrass. The settings on record: Sorghum halepense, pre-emergence; for pest or weed control at 250 g/ha: 0.25 kg/ha. In a few lines: as §3
In assay [10] the test system is Velvetleaf. Briefly: Postemergence Herbicidal Activity, Velvetleaf. Conditions: Abutilon theophrasti, post-emergence; for pest or weed control at 250 g/ha: 0.25 kg/ha. In a few lines:
as §2

The test system of assay [11] is Wheat. Briefly: Preemergence Herbicidal Activity, Wheat. The settings on record: Triticum aestivum, pre-emergence; for plant injury at 250 g/ha: 0.25 kg/ha. In a few lines:
as §1

For assay [12], the system named is Morningglory. Description: Postemergence Herbicidal Activity, Morningglory. The settings on record: Ipomoea, post-emergence; for pest or weed control at 250 g/ha: 0.25 kg/ha. In a few lines: as §2
The test system of assay [13] is Cotton. Briefly: Preemergence Herbicidal Activity, Cotton. The settings on record: Gossypium hirsutum, pre-emergence; for plant injury at 250 g/ha: 0.25 kg/ha. In a few lines:
as §2

The test system of assay [14] is Cotton. Description: Postemergence Herbicidal Activity, Cotton. The settings on record: Gossypium hirsutum, post-emergence; for plant injury at 250 g/ha: 0.25 kg/ha. In a few lines:
as §2

For assay [15], the system named is Rice. Briefly: Preemergence Herbicidal Activity, Rice. The settings on record: Oryza sativa, pre-emergence; for plant injury at 250 g/ha: 0.25 kg/ha. The procedure, abridged: as §1
Assay [16] relates to Barnyardgrass. Description: Postemergence Herbicidal Activity, Barnyardgrass. The settings on record: Echinochloa crus-galli, post-emergence; for pest or weed control at 250 g/ha: 0.25 kg/ha. In a few lines: as §3
In assay [17] the test system is Barnyardgrass. Description: Preemergence Herbicidal Activity, Barnyardgrass. The settings on record: Echinochloa crus-galli, pre-emergence; for pest or weed control at 250 g/ha: 0.25 kg/ha. The procedure, abridged:
as §3

Assay [18] concerns Field Corn. Briefly: Postemergence Herbicidal Activity, Field Corn. The settings on record: Zea mays, post-emergence; for plant injury at 250 g/ha: 0.25 kg/ha. In a few lines:
as §1

In assay [19] the test system is Field Bindweed. Briefly: Postemergence Herbicidal Activity, Field Bindweed. The settings on record: post-emergence; for pest or weed control at 250 g/ha: 0.25 kg/ha. In a few lines:
as §2

The subject of assay [20] is Wheat. Briefly: Postemergence Herbicidal Activity, Wheat. The settings on record: Triticum aestivum, post-emergence; for plant injury at 250 g/ha: 0.25 kg/ha. In a few lines:
as §1

The test system of assay [21] is Green Foxtail. Description: Preemergence Herbicidal Activity, Green Foxtail. The settings on record: Setaria viridis, pre-emergence; for pest or weed control at 250 g/ha: 0.25 kg/ha. The procedure, abridged:
as §3

Assay [22] deals with Field Bindweed. Briefly: Preemergence Herbicidal Activity, Field Bindweed. Conditions: pre-emergence; for pest or weed control at 250 g/ha: 0.25 kg/ha. The procedure, abridged:
as §2

What is called plant injury is the degree to which the test organism was suppressed or injured, in per cent. Low readings indicate weak suppression, high ones strong suppression. In general, pest or weed control refers to the degree to which the test organism was suppressed or injured, in per cent. A high value points to strong suppression. For the compound `CCCS(=O)(=O)N(c1cc(-n2nnn(CCCF)c2=O)c(F)cc1Br)S(=O)(=O)CCC` [Compound 27], the plant injury at 1000 g/ha amounted to 90% in the assay on Soybean [1] (1.0 kg/ha); 30% in the assay on Rice [3] (1.0 kg/ha); 30% with Soybean [4] (1.0 kg/ha); 95% in the assay on Field Corn [5] (1.0 kg/ha); 60% in the assay on Wheat [11] (1.0 kg/ha); 95% in the assay with Cotton [13] (1.0 kg/ha). Besides, the plant injury at 1000 g/ha with Cotton [14] (1.0 kg/ha) was 100%; with Rice [15] (1.0 kg/ha) it was 60%; with Field Corn [18] (1.0 kg/ha), 95%; with Wheat [20] (1.0 kg/ha), 80%. The pest or weed control at 1000 g/ha in the assay with Velvetleaf [2] (1.0 kg/ha) is 100%; in the assay with Johnsongrass [6] (1.0 kg/ha), 100%; with Green Foxtail [7] (1.0 kg/ha) it was 100%; in the assay on Morningglory [8] (1.0 kg/ha), 100%; in the assay with Johnsongrass [9] (1.0 kg/ha), 95%; with Velvetleaf [10] (1.0 kg/ha), 100%. Further, the pest or weed control at 1000 g/ha with Morningglory [12] (1.0 kg/ha) came to 100%; with Barnyardgrass [16] (1.0 kg/ha), 100%; in the assay on Barnyardgrass [17] (1.0 kg/ha), 100%; with Field Bindweed [19] (1.0 kg/ha) it was 95%; in the assay with Green Foxtail [21] (1.0 kg/ha), 100%; in the assay with Field Bindweed [22] (1.0 kg/ha), 100%.
As for `CCCS(=O)(=O)Nc1cc(-n2nnn(CCCF)c2=O)c(F)cc1Cl` [Compound 28, 1-[4-Chloro-2-fluoro-5-(N--propylsulfonylamino)phenyl]-1,4-dihydro-4-(3-fluoropropyl)-5H--tetrazol-5-one], the plant injury at 500 g/ha in the assay on Soybean [1] (0.5 kg/ha) was found to be 30%; in the assay on Rice [3] (0.5 kg/ha), 70%; in the assay with Soybean [4] (0.5 kg/ha) it was 0%; in the assay on Field Corn [5] (0.5 kg/ha), 30%; in the assay with Wheat [11] (0.5 kg/ha), 30%; with Cotton [13] (0.5 kg/ha), 100%. Besides, the plant injury at 500 g/ha with Cotton [14] (0.5 kg/ha) came out at 100%; in the assay on Rice [15] (0.5 kg/ha), 70%; in the assay on Field Corn [18] (0.5 kg/ha), 40%; with Wheat [20] (0.5 kg/ha), 60%. The pest or weed control at 500 g/ha stood at 100% in the assay with Velvetleaf [2] (0.5 kg/ha); 95% with Johnsongrass [6] (0.5 kg/ha); 100% with Green Foxtail [7] (0.5 kg/ha); 100% with Morningglory [8] (0.5 kg/ha); 70% in the assay with Johnsongrass [9] (0.5 kg/ha); 100% in the assay on Velvetleaf [10] (0.5 kg/ha). In addition, the pest or weed control at 500 g/ha with Morningglory [12] (0.5 kg/ha) was 100%; with Barnyardgrass [16] (0.5 kg/ha), 100%; with Barnyardgrass [17] (0.5 kg/ha), 95%; in the assay with Field Bindweed [19] (0.5 kg/ha), 100%; with Green Foxtail [21] (0.5 kg/ha), 90%; in the assay on Field Bindweed [22] (0.5 kg/ha), 100%.
With `CCCS(=O)(=O)N(C)c1cc(-n2nnn(CCCF)c2=O)c(F)cc1Cl` [Compound 29, 1-[4-Chloro-2-fluoro-5-(N--methyl-N--propylsulfonylamino)phenyl]-1,4-dihydro-4-(3-fluoropropyl)-5H--tetrazol-5-one], the plant injury at 250 g/ha with Soybean [1] is 70%; in the assay with Rice [3], 60%; in the assay on Soybean [4], 30%; with Field Corn [5], 95%; with Wheat [11] it was 80%; in the assay with Cotton [13] it was 60%. Besides, the plant injury at 250 g/ha with Cotton [14] turned out to be 70%; in the assay with Rice [15] it was 60%; with Field Corn [18], 40%; in the assay on Wheat [20], 80%. Besides, the pest or weed control at 250 g/ha came out at 100% with Velvetleaf [2]; 70% in the assay with Johnsongrass [6]; 60% in the assay with Green Foxtail [7]; 70% with Morningglory [8]; 100% with Johnsongrass [9]; 100% in the assay with Velvetleaf [10]. For the same compound, the pest or weed control at 250 g/ha in the assay with Morningglory [12] is 70%; in the assay with Barnyardgrass [16], 50%; in the assay with Barnyardgrass [17], 100%; with Field Bindweed [19] it was 80%; with Green Foxtail [21] it was 100%; in the assay with Field Bindweed [22], 70%.
As to `O=c1n(CCCF)nnn1-c1cc(NS(=O)(=O)C(F)(F)F)c(Cl)cc1F` [Compound 30, 1-[4-Chloro-2-fluoro-5-(N-trifluoromethylsulfonylamino)phenyl]-1,4-dihydro-4-(3-fluoropropyl)-5H-tetrazol-5-one], the plant injury at 250 g/ha in the assay on Soybean [1] was found to be 40%; in the assay with Rice [3] it was 10%; in the assay with Soybean [4] it was 10%; in the assay with Field Corn [5], 10%; in the assay on Wheat [11] it was 0%; in the assay with Cotton [13] it was 50%. Also, the plant injury at 250 g/ha was 90% with Cotton [14], 20% in the assay on Rice [15], 30% in the assay on Field Corn [18] and 10% with Wheat [20]. In addition, the pest or weed control at 250 g/ha was determined as 100% in the assay on Velvetleaf [2]; 0% with Johnsongrass [6]; 0% in the assay with Green Foxtail [7]; 60% in the assay on Morningglory [8]; 60% in the assay on Johnsongrass [9]; 100% in the assay on Velvetleaf [10]. The pest or weed control at 250 g/ha was 80% in the assay on Morningglory [12]; 10% in the assay on Barnyardgrass [16]; 0% in the assay on Barnyardgrass [17]; 70% with Field Bindweed [19]; 10% in the assay on Green Foxtail [21]; 95% in the assay with Field Bindweed [22].
